Measurements taken from publication PMC8206213, “An L-2-hydroxyglutarate biosensor based on specific transcriptional regulator LhgR” (Nature Communications, 2021).

Legend:
LHGFR0N3C [1] = molecular target: T1, LHGFR0N3C; test: FRET titration of purified sensor with L-2-HG (10 nM to 2 mM) added to human urine diluted with an equal volume of 50 mM Tris-HCl pH 7.4, mixed 3:1, Venus/mTFP emission ratio.; assay type: binding; conditions: SD, n = 3
T1 construct: FRET sensor: LhgR truncated by three C-terminal amino acids between mTFP (N-terminus) and Venus (C-terminus)
Description: (§1) Purified L-2-HG biosensors and different compounds were diluted by 50 mM Tris-HCl buffer (pH 7.4), mixed together in a black 96-well plate at a volume ratio of 3:1, and the fluorescence intensities were measured using an EnSight microplate reader (PerkinElmer, USA) with excitation at 430 nm, emission at 485 nm (mTFP) and 528 nm (Venus). The dose-response curves were fitted by OriginPro 2016 software (OriginLab) according to the following formula:1 R=Rmax+Rmin−Rmax/1+([L-2-HG]/Kd)^p where R, Rmin, and Rmax refer to the emission ratio of Venus to mTFP, ratio in the absence of L-2-HG, and ratio at saturation with L-2-HG, respectively. […] Emission spectra were recorded at 430 nm excitation, in steps of 2 nm. Excitation spectra were recorded using emission at 550 nm, excitation from 380 to 535 nm in steps of 2 nm.
(§2) In order to test the ability of LHGFR for quantitative analysis L-2-HG in different biological samples, purified LHGFR was diluted by 50 mM Tris-HCl (pH 7.4), while varying concentrations of L-2-HG were added into the serum and urine of a healthy adult and bacteria culture medium and filtered through a 0.22 μm filter, respectively. […] The mixtures of purified LHGFR and L-2-HG in different biological samples were then incubated in a black 96-well plate at a volume ratio of 3:1, and the emission ratios were determined using an EnSight microplate reader. […]

LHGFR0N7C [2] = molecular target: T2, LHGFR0N7C; test: as above; assay type: binding; conditions: SD, n = 3
T2 construct: FRET sensor: LhgR truncated by seven C-terminal amino acids between mTFP (N-terminus) and Venus (C-terminus)
Description: as §1, §2

LHGFR0N3C [3] = molecular target: T1, LHGFR0N3C; test: FRET titration of purified sensor with L-2-HG (10 nM to 2 mM) added to filtered human serum, sensor in 50 mM Tris-HCl pH 7.4 mixed 3:1, Venus/mTFP emission ratio.; assay type: binding; conditions: SD, n = 3
Description: as §1, §2

LHGFR0N7C [4] = molecular target: T2, LHGFR0N7C; test: as above; assay type: binding; conditions: SD, n = 3
Description: as §1, §2

LHGFR0N3C [5] = system: T1, LHGFR0N3C; test: Emission ratio of cytosolic sensor in HEK293FT cells permeabilized with 10 uM digitonin versus L-2-HG (10 nM to 10 mM) in Hank's balanced salt solution with 20 mM HEPES.; assay type: cell-based; conditions: read-out: apparent Kd of LHGFR0N3C expressed in HEK293FT cells; SD, n = 3
Description: To characterize the sensitivity and specificity of LHGFR expressed in HEK293FT cells, cells were trypsinized 48 h following transfection and suspended in 1× Hank’s balanced salt solution supplemented with 20 mM HEPES. […] Digitonin at a concentration of 10 μM was used to induce cell permeabilization and deplete intracellular L-2-HG for in vivo response curves construction. Then, the fluorescence intensities were determined by a SpectraMax i3 fluorescence plate reader (Molecular Devices, USA) with excitation at 430 nm and emission at 485 nm (mTFP) and 528 nm (Venus). Basal L-2-HG concentration in HEK293FT cells under physiological conditions was determined by substituting the emission ratios of non-permeabilized HEK293FT cells into the calibrated in vivo response curves.

LHGFR0N3C [6] = molecular target: T1, LHGFR0N3C; test: FRET titration of purified sensor with L-2-HG (10 nM to 2 mM) added to filtered bacterial culture medium, sensor in 50 mM Tris-HCl pH 7.4 mixed 3:1, Venus/mTFP emission ratio.; assay type: binding; conditions: SD, n = 3
Description: as §1, §2

LHGFR0N7C [7] = molecular target: T2, LHGFR0N7C; test: as above; assay type: binding; conditions: SD, n = 3
Description: as §1, §2

LHGFR0N3C [8] = system: T1, LHGFR0N3C; test: Emission ratio of sensor in living carbon-starved E. coli BL21(DE3) versus exogenous L-2-HG (100 nM to 10 mM) at 60 min, 37 °C.; assay type: cell-based; conditions: read-out: apparent Kd of LHGFR0N3C expressed in E. coli BL21(DE3); SD, n = 3
Description: E. coli BL21(DE3) strains harboring either pETDuet-LHGFR0N3C, pETDuet-LHGFR0N7C, or pETDuet-LHGFR3N7C were grown to an OD600 of 0.6 in LB medium at 37 °C, after which the cells were induced overnight in the presence of 1 mM IPTG at 16 °C.
To characterize the sensitivity and specificity of LHGFR expressed in E. coli BL21(DE3), 90 μL cell suspensions following 8 h carbon starvation were mixed with 10 μL increasing concentrations of L-2-HG or other compounds, and then added into a black 96-well plate (total 100 μL/per well), the fluorescence intensities were determined using an EnSight microplate reader (PerkinElmer, USA) and the following instrument settings: excitation at 430 nm, emission at 485 nm (mTFP) and 528 nm (Venus), time intervals of 5 min, the temperature at 37 °C, and shake at 180 rpm. […] In order to analyze functions of CsiD and LhgO in endogenous L-2-HG anabolism and catabolism during carbon starvation, pETDuet-LHGFR0N3C, pETDuet-LHGFR0N7C, or pETDuet-LHGFR3N7C was transferred into E. coli MG1655(DE3) and its variants, and the assays were performed using the same procedure.

LHGFR0N3C [9] = molecular target: T1, LHGFR0N3C; test: FRET titration of purified sensor with L-2-HG in 50 mM Tris-HCl pH 7.4, Venus/mTFP emission ratio (excitation 430 nm, emission 528/485 nm), Hill-type fit.; assay type: binding; conditions: SD, n = 3; read-out: apparent dissociation constant (Kd)
Description: (§3) Purified L-2-HG biosensors and different compounds were diluted by 50 mM Tris-HCl buffer (pH 7.4), mixed together in a black 96-well plate at a volume ratio of 3:1, and the fluorescence intensities were measured using an EnSight microplate reader (PerkinElmer, USA) with excitation at 430 nm, emission at 485 nm (mTFP) and 528 nm (Venus). The dose-response curves were fitted by OriginPro 2016 software (OriginLab) according to the following formula:1 R=Rmax+Rmin−Rmax/1+([L-2-HG]/Kd)^p where R, Rmin, and Rmax refer to the emission ratio of Venus to mTFP, ratio in the absence of L-2-HG, and ratio at saturation with L-2-HG, respectively. The [L-2-HG], Kd, and p refer to the L-2-HG concentration, apparent dissociation constant, and Hill slope, respectively. Emission spectra were recorded at 430 nm excitation, in steps of 2 nm. Excitation spectra were recorded using emission at 550 nm, excitation from 380 to 535 nm in steps of 2 nm.
(§4) Fig. 3 Design and optimization of the LHGFR. a Schematic representation of the predicted conformational change of LhgR-based L-2-HG biosensor LHGFR in the absence or presence of L-2-HG. […] The emission ratio of Venus to mTFP increased (430 nm excitation) after L-2-HG binding. c Heap map of the truncating the N-terminal and C-terminal amino acids of LhgR to ∆Rmax. […] The emission ratio changes of both biosensors were measured in the presence of 240 μM D-lactate, L-lactate, L-2-HG, D-2-HG, or different intermediates of the TCA cycle and L-lysine catabolism. g, h Reversal of L-2-HG binding with LHGFR by conversion of L-2-HG to 2-KG. […] All data shown are means ± s.d. (n = 3 independent experiments).
(§5) Supplementary Figure 6 Dose-response curves of purified LHGFR variants truncated three to seven C-terminal amino acids in LhgR for L-2-HG. Dose-response curves of LHGFR0N3C […]
(§6) concentrations (10 nM to 2 mM) of L-2-HG were indicated. The maximum ratio change (∆Rmax), apparent dissociation constant (Kd), and R2 were shown in each figure. All data shown are means ± s.d. (n = 3 independent experiments). Source data are provided as a […]

LHGFR0N7C [10] = molecular target: T2, LHGFR0N7C; test: as above; assay type: binding; conditions: SD, n = 3; read-out: apparent dissociation constant (Kd)
Description: as §3, §4, §5, §6

LHGFR0N0C = molecular target: T3, LHGFR0N0C; test: as above; assay type: binding; conditions: SD, n = 3; read-out: apparent dissociation constant (Kd)
T3 construct: FRET sensor: full-length LhgR between mTFP (N-terminus) and Venus (C-terminus); pETDuet-1, Ni-chelating purification
Description: as §3, §4, §5, §6

For `O=C(O)CC[C@H](O)C(=O)O` [L-2-HG, L-2-hydroxyglutarate], the Kd (LHGFR0N3C [1]) was 29.5 µM, the Kd (LHGFR0N7C [2]) was 7.77 µM and the Kd (LHGFR0N3C [3]) was 27.8 µM. The Kd (LHGFR0N7C [4]) was 8.35 µM, the Kd (LHGFR0N3C [5]) was 43.8 µM and the Kd (LHGFR0N3C [6]) was 36.9 µM. The Kd (LHGFR0N7C [7]) was 6.65 µM, the Kd (LHGFR0N3C [8]) was 892 µM and the Kd (LHGFR0N3C [9]) was 29.3 µM. For the same molecule, the Kd (LHGFR0N7C [10]) was 7.22 µM and the Kd (LHGFR0N0C) was 2.74 µM.
